Drawing on US20220259213A1, “PYRROLOPYRAZOLE DERIVATIVES, PREPARATION METHOD THEREOF AND APPLICATION THEREOF IN MEDICINE” (SHANGHAI MEDICILON INC., priority 2019, published 2022), this text covers IC50 for five compounds.

SMILES strings stand for the structures.

T1 sequence (P27112 whole entry): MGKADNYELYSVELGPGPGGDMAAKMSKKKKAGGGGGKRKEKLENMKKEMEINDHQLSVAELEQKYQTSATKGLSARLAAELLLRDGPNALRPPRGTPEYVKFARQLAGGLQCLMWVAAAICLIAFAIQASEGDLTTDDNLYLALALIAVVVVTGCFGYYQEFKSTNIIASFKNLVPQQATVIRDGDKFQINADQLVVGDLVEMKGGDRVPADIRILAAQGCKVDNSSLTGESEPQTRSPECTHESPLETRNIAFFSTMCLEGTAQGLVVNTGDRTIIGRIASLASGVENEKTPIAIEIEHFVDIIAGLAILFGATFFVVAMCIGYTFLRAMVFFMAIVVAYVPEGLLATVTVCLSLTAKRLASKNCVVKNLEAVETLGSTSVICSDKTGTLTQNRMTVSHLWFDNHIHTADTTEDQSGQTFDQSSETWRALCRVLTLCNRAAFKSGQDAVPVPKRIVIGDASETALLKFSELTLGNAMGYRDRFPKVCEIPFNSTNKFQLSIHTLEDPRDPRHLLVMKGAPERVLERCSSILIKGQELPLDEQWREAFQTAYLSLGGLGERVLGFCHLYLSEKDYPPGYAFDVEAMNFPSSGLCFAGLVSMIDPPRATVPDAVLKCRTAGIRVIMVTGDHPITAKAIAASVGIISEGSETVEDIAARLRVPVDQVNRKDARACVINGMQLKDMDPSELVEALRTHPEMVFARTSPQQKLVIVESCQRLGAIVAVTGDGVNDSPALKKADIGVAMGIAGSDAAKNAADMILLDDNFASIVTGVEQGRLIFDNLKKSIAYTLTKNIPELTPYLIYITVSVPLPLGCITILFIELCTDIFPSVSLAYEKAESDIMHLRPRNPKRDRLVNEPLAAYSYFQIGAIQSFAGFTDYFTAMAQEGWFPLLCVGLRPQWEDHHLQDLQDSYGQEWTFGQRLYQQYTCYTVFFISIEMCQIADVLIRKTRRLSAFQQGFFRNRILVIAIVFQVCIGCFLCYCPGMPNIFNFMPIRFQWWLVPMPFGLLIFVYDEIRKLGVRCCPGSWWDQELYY
T1 sequence (P18597 whole entry partner): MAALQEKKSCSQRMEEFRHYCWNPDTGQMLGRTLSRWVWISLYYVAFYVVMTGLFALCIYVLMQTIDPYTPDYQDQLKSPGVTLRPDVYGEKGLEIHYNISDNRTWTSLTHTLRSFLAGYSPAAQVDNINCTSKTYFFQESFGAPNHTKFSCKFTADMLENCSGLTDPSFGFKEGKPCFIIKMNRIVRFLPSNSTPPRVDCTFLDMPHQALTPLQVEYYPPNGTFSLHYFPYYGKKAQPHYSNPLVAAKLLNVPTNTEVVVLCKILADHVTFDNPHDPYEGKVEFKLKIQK

The assay concerns the target T1, H+/K+ATPase (Oryctolagus cuniculus, UniProt P27112).
T1 construct: The stomach tissue of the rabbit was separated; from tissue; host or cells: rabbit stomach (fundus) mucosa; membrane pellet obtained by differential and Ficoll centrifugation
In words: determination of compounds' inhibition of H+/K+ATPase enzyme activity (malachite green). It is filed as biochemical. The settings on record: enzyme extracted from rabbit stomach mucosa; 500 μM ATP; pH 6.5; 37° C.; OD 620 nm; read-out: IC50(μM) inhibition rate (IC50) of H+/K+ATPase enzyme activity. Here is the method: Test example: determination of compounds' inhibition of H+/K+ATPase enzyme activity
The following experiment is used to determine the inhibitory effect of the compound of the present invention on the H+/K+ATPase enzyme activity.
Enzyme working solution: titrating the enzyme, diluting the enzyme with buffer solution 1, and taking 5 μl of the diluted solution into 50 μl reaction system.
ATP solution: 100 mM ATP was diluted to 5 mM with no K+buffer, and 5 μl of the diluted solution was added to the 50 μl reaction system, that is, the final concentration of ATP was 500 μM.
MLG color development liquid: 0.12% MLG, 7.5% ammonium molybdate, 11% Tween-20 was mixed as 100:25:2, and adding 15 μl of the mixture into each well during detection.
Buffer 1: 5 mM Tris-HCl pH 6.5, 5 mM magnesium chloride (magnesium chloride), 10 μM valinomycin (valinomycin).
Buffer 2: 50 mM Tris-HCl pH 6.5, 5mM magnesium chloride (magnesium chloride), 10 μM valinomycin (valinomycin), 20 mM KCl.
3.1. H^+/K^+ ATPase enzyme extraction
(1) The stomach tissue of the rabbit was separated, and the blood was washed with tap water, food residue.
(5) After homogenization, if there were larger tissue particles, they could be removed by centrifugation (600 g, 10 min), and then the supernatant was transfered to a clean centrifuge tube. After centrifugation at 20000 g for 30 minutes, then the supernatant was transferred to a clean centrifuge tube at 100000 g for 90 minutes, and the precipitate was collected.
(7) Resuspending the precipitate with homogenization buffer, blowing uniformly, and the protein concentration was measured by Bradford. Freezing in tubes at −80° C. for later use.
3.2. H+/K+ATPase activity experiment
(1) Adding 35 μl of reaction buffer to each experimental well, and then adding 35 μl of buffer 1.
(2) Adding 5 μl buffer 1 containing 10% DMSO to the whole enzyme and buffer well.
(3) Adding 5 μl of 10× compound working solution to the compound well and mixing well.
(4) Adding 5 μl of buffer 1 to the buffer well.
(5) Adding 5 μl of 10× enzyme working solution to the remaining wells, mixing and incubating at 37° C. for 30minutes.
(6) Adding 5 μl of 10×ATP working solution to all experimental wells, mixing and incubating at 37° C. for 20 min.
(7) Adding 15 μl MLG chromogenic solution to all experimental wells, and uniformly mixing and incubating at room temperature for 5-30 min.
(8) The reading number of 620 nm was detected by an M5 instrument.
The inhibition rate is calculated with the following formula:
Inhibition rate (IC50)=[OD (sample well)−OD (full enzyme well containing potassium chloride)]/[(OD (full enzyme well containing potassium chloride)−(OD (full enzyme well without potassium chloride)]×100%
For `COc1ccc(Cn2nc3c(c2-c2ccccc2F)CN(C)C3)cn1` [Example 5, 3-(2-fluorobenzeneyl)-2-((6-methoxypyridin-3-yl)methyl)-5-methyl-2,4,5,6-tetrahydropyrrolo[3,4-c]pyrazole], the IC50 is 0.365 µM.
The result for `CN1Cc2nn(Cc3cccnc3)c(-c3ccc4[nH]cnc4c3)c2C1` [Example 3, (5-methyl-2-(pyridin-3-ylmethyl)-2,4,5,6-tetrahydropyrrole[3,4-c]pyrazol-3-yl)-1H-benzo[d]imidazole] reads 24 µM; that for `CN1Cc2nn(Cc3cccnc3)c(-c3ccc4occc4c3)c2C1` [Example 2, 3-(benzofuran-5-yl)-5-methyl-2-(pyridin-3-ylmethyl)-2,4,5,6-tetrahydropyrrole[3,4-c]pyrazole], 1.38 µM; that for `CN1Cc2nn(Cc3cccnc3)c(-c3ccc4c(c3)CCO4)c2C1` [Example 1, 3-(2,3-dihydrobenzofuran-5-methyl)-5-methyl-2-(pyridin-3-ylmethyl)-2,4,5,6-tetrahydropyrrole[3,4-c]pyrazole], 3.55 µM.
With `CN1Cc2nn(Cc3cccnc3)c(-c3ccccc3F)c2C1` [Example 4, (2-fluorophenyl)-5-methyl-2-(pyridin-3-ylmethyl)-2,4,5,6-tetrahydropyrrole[3,4-c]pyrazole], the IC50 is 0.674 µM.
